Results as given in US20250282770A1, “BIOLUMINESCENT PROBES TO TRACK STEM CELLS IN VIVO” (THE BOARD OF TRUSTEES OF THE UNIVERSITY OF ILLINOIS, priority 2024, published 2025).

Key:
[1] = system: ALDH1A1 activity in 4T1 cells; assay: Influence of interferon-gamma on ALDH1A1 activity in 4T1 cells using AlDeLuc; format: cell-based, murine; settings: INF-γ 26.8 ng/mL, 12 hours; AlDeLuc 50 μM
Experimental: Influence of Interferon-gamma (INF-γ) on ALDH1A1 activity in 4T1 Cells Using AlDeLuc. 4T1 cells were cultured in T75 culture flasks. After two days, cells had become ˜90% confluent. An aliquot of RPMI 1640 was removed (26.8 μL) and the flasks were then treated with INF-γ (26.8 μL of […] stock in PBS, 26.8 ng/mL final conc.) or vehicle (26.8 μL PBS). After 12 hours, the solutions were aspirated, washed with PBS, and resuspended in fresh RPMI 1640 media (9 mL). AlDeLuc was added to each flask ([…], 5% v/v DMSO:PBS) for a final concentration of 0.5% DMSO per flask. After 60 minutes this solution was aspirated, washed with fresh PBS, and detached from the culture flasks. The cells were then transferred to a 15 mL centrifuge tube and pelleted at 1000 rpm for 5 minutes at room temp. The cells were resuspended in PBS along with 10% protease inhibitor solution (1 protease inhibitor mini tablet per 10 mL of PBS, Pierce, Thermo Fisher Scientific) and sonicated on ice for 2.5 minutes (pulse 01, 01, 40%). The cell debris was removed via centrifugation and the supernatant was plated (95 μL/well) into a 96-well plate (n=4 for each condition). Each well was treated with luciferase (5 μL, 1 mg/mL) and immediately imaged using the IVIS imaging system in open mode. ROIs were drawn around each well and the signal intensity was quantified using the Living Image Analysis software.

ALDH1A1 [2] = biological target: T1, ALDH1A1 (Mus musculus, UniProt P24549); assay: DEAB inhibition of AlDeLuc activation in 4T1 cells; format: cell-based, murine; parameters: host or cells: 4T1 murine mammary carcinoma cells; settings: DEAB 500 μM; AlDeLuc 100 μM; 4T1 lysates
T1 sequence (P24549 1-501): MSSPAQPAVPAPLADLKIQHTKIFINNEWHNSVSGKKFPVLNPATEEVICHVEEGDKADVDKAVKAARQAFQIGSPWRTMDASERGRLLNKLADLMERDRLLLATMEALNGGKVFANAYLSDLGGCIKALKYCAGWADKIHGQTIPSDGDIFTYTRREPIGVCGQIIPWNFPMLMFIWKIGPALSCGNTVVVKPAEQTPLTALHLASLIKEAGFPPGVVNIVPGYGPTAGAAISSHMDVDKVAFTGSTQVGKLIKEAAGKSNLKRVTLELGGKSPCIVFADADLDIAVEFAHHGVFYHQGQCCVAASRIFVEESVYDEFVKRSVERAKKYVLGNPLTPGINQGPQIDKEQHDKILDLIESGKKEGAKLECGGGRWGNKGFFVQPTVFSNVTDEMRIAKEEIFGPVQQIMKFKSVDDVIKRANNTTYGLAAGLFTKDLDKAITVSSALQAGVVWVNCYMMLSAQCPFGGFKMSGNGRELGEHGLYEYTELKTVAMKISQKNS
Experimental: Validation of ALDH-Mediated Activation of AlDeLuc in Murine Breast Cancer Cells. 4T1 cells were cultured in T75 culture flasks. After two days, cells had become ˜90% confluent. An aliquot of RPMI 1640 media (1 mL) was removed from each flask and replaced with either DEAB ([…], 0.5% DMSO) or vehicle (0.5% DMSO). After incubation for one hour, the solutions were aspirated, washed with PBS, and resuspended in fresh RPMI 1640 media (9 mL). Each flask was then incubated with the AlDeLuc (100 μM) and DEAB (500 μM) or AlDeLuc (100 μM) and vehicle (DMSO), each with a final concentration of 1% DMSO. After 60 minutes, this solution was aspirated, washed with fresh PBS, and detached from the culture flasks. The cells were then transferred to a 15 mL centrifuge tube and pelleted at 1000 rpm for 5 minutes at room temp. The cells were resuspended in PBS along with 10% protease inhibitor solution (1 protease inhibitor mini tablet per 10 mL of PBS, Pierce, Thermo Fisher Scientific) and sonicated on ice for 2.5 minutes (pulse 01, 01, 40%). The cell debris was removed via centrifugation and the supernatant was plated ([…]) into a 96-well plate (n=4 for each condition). […] ROIs were drawn around each well and the signal intensity was quantified using the Living Image Analysis software.

ALDH1A1 [3] = biological target: T1, ALDH1A1; assay: Validation of ALDH-mediated activation of AlDeLuc in heterotopic breast cancer model via DEAB inhibition; format: in vivo, BALB/c mice; parameters: from tissue; host or cells: 4T1-Luc tumours in BALB/c mice
Experimental: Validation of ALDH-mediated Activation of AlDeLuc in a Heterotopic Breast Cancer Model via DEAB Inhibition. BALB/c mice bearing 4T1-Luc tumors were anesthetized using isoflurane (1-3% for maintenance; up to 5% for induction) in oxygen from a precision vaporizer. After testing to ensure animals are fully under anesthesia, each mouse was administered AlDeLuc via retro-orbital injection (0.55 mg/kg, 1:19 v/v DMSO:PBS). Images were captured using the IVIS imaging system 40 minutes after injection. Bioluminescence light was captured in open mode (no filters were applied). ROIs were drawn around each tumor and summed for each animal. The signal intensity was quantified using the Living Image Analysis Software. After two days, the same animals were anesthetized and co-administered a solution of AlDeLuc and DEAB (0.55 mg/kg and 93 mg/kg respectively, 1:19 v/v DMSO:PBS). After the allotted 40 minutes, the images were captured using the IVIS imaging system. Bioluminescence was collected in open mode (no filters were applied). ROIS were drawn around each tumor and summed for each animal. The signal intensity was quantified using the Living Image Analysis Software.

ALDH1A1 activity = assay: High-fat diet inflammatory model, orthotopic 4T1-Luc tumors, AlDeLuc imaging after L-NMMA; format: in vivo, BALB/c mice; settings: L-NMMA 50 mg/kg oral gavage 20 days, AlDeLuc 0.55 mg/kg
Experimental: (§1) Finally, to examine how NO influences ALDH1A1 activity in vivo we placed BALB/c mice (female, 5-7 weeks old) on a high-fat diet for 40 weeks to induce an inflammatory response through elevated NO production. This period consists of a ˜20-week priming period prior to inoculation of the animals with 4T1-Luc cells at the mammary fat pad. At this point, the mice were randomized into two groups. The treatment group was administered L-NMMA (50 mg/kg), whereas the control group received water via oral gavage for 20 days. The day after the final treatment, mice from both conditions were treated systemically with AlDeLuc, and the bioluminescence was monitored (FIG. 5e). […] At the completion of the diet study, animals were sacrificed, and their tumors were excised for further immunohistochemical analysis.
Generation of an Orthotopic 4T1-Luc Breast Cancer Model for Diet Studies. Female BALB/c mice (˜6 weeks old) were inoculated with 4T1-Luc cells (50 μL of 1×10^5 cells in 1:1 v/v serum-free RPMI 1640 media and Matrigel) via subcutaneous injections into the mammary fat pad. Tumor volumes were measured using the caliper method every three days. Body weight was measured daily over the course of the experiment.

iNOS = assay: Immunohistochemical analysis of excised 4T1-Luc tumors; format: in vivo, BALB/c mice; settings: L-NMMA 50 mg/kg versus vehicle; high-fat diet
Text: as §1, with “Diet-Induced Inflammation Modulates ALDH1A1 Activity in a Murine Model of Breast Cancer. Finally,” for “Finally,”, “analysis. Specifically, we determined that iNOS expression in tumors treated with L-NMMA was reduced. […] That is, reducing the levels of NO has the effect of increasing ALDH1A1 activity (as determined with AlDeLuc), as well as overall protein expression levels (FIG. 5h).” for “analysis.”

[4] = system: intracellular levels of NO; assay: Intracellular NO levels in 4T1-Luc cells with BL660NO probe; format: cell-based, murine; settings: 30 minutes
Experimental: FIG. 14A-D. a) 4T1-Luc cells administered BL660NO (NO-responsive bioluminescent probe; 39 μM) after incubation with DEA-NONOate (50 μM) for 30 minutes. b) Quantified data from a. c) 4T1-Luc cells administered BL660NO (20 μM) after incubation with L-NMMA (1 mM) for 30 minutes. d) Quantified data from c. Statistical analysis was performed using two-tailed Student's t-test with Welch's correction (α=0.05), *ρ<0.05.

[5] = system: ALDH1A1 activity in 4T1 cells; assay: Influence of L-NMMA on ALDH1A1 activity in 4T1 cells using AlDeLuc; format: cell-based, murine; settings: L-NMMA 1 mM; AlDeLuc 50 μM
Experimental: Influence of L-NMMA on ALDH1A1 activity in 4T1 Cells Using AlDeLuc. 4T1 cells were cultured in T75 culture flasks. After two days, cells had become ˜90% confluent. The media was aspirated and 9 mL of fresh media was added. The flasks were then treated with L-NMMA (1 mM, cell culture water) or vehicle (cell culture water). After incubation for 60 minutes, the solutions were aspirated, washed with PBS, and resuspended in fresh RPMI 1640 media (9 mL). AlDeLuc was added to each flask (50 M, 5% v/v DMSO:PBS) for a final concentration of 0.5% DMSO per flask. After 60 minutes this solution was aspirated, washed with fresh PBS, and detached from the culture flasks. The cells were then transferred to a 15 mL centrifuge tube and pelleted at 1000 rpm for 5 minutes at room temp. The cells were resuspended in PBS along with 10% protease inhibitor solution (1 protease inhibitor mini tablet per 10 mL of PBS, Pierce, Thermo Fisher Scientific) and sonicated on ice for 2.5 minutes (pulse 01, 01, 40%). The cell debris was removed via centrifugation and the supernatant was plated (95 L/well) into a 96-well plate (n=4 for each condition). Each well was treated with luciferase (5 μL, 1 mg/mL) and immediately imaged using the IVIS imaging system in open mode. ROIs were drawn around each well and the signal intensity was quantified using the Living Image Analysis software.

ALDH1A1 [6] = assay: Immunohistochemical analysis of excised 4T1-Luc tumors; format: in vivo, BALB/c mice; settings: L-NMMA 50 mg/kg versus vehicle; high-fat diet; opposite to reduced iNOS
Experimental: as §1

[7] = system: ALDH1A1 activity in 4T1 cells; assay: Effect of nitric oxide (DETA NONOate) on ALDH1A1 activity in 4T1 cells using AlDeLuc; format: cell-based, murine; settings: DETA NONOate 50 μM, 2-day treatment; AlDeLuc 2 μM
Experimental: Exploring the Effect of Nitric Oxide on ALDH1A1 activity in 4T1 Cells Using AlDeLuc. 4T1 cells were cultured in T75 flasks, and once they reached ˜30% confluency (1 day), the media was removed and replaced with fresh RPMI 1640 media supplemented with either DETA NONOate (50 μM) or vehicle (media). After 24 hours, the media was aspirated, and the cells were treated once more with RPMI 1640 media containing either DETA NONOate (50 μM) or vehicle (media). After […], the suspension was removed and cells were treated with AlDeLuc (2 μM, final concentration of 0.01% DMSO). After 60 minutes the AlDeLuc solution was aspirated, washed with fresh PBS, and detached from the culture flasks. The cells were then transferred to a 15 mL centrifuge tube and pelleted at 1000 rpm for 5 minutes at room temp. The cells were resuspended in PBS along with 10% protease inhibitor solution (1 protease inhibitor mini tablet per 10 mL of PBS, Pierce, Thermo Fisher Scientific) and sonicated on ice for 2.5 minutes (pulse 01, 01, 40%). The cell debris was removed via centrifugation and the supernatant was plated (95 μL/well) into a 96-well plate (n=4 for each condition). Each well was treated with luciferase (5 μL, 1 mg/mL) and immediately imaged using the IVIS imaging system in open mode. ROIs were drawn around each well and the signal intensity was quantified using the Living Image Analysis software.

IFN-γ: interferon gamma, shown to stimulate NO production via inducible nitric oxide synthase
bioluminescence signal lower relative to vehicle-treated control cells [1]: 3.2 fold

CCN(CC)c1ccc(C=O)cc1 [DEAB, diethylaminobenzaldehyde]
diminished bioluminescent signal relative to uninhibited cells (ALDH1A1 [2]): approximately 5 fold | difference in total luminescent counts, AlDeLuc alone versus DEAB co-treated (ALDH1A1 [3]; DEAB 93 mg/kg, AlDeLuc 0.55 mg/kg): 2.8 fold | total luminescent counts (ALDH1A1 [3]; co-treated DEAB 93 mg/kg and AlDeLuc 0.55 mg/kg, 40 min): 0.78±0.28×10^4

CNC(=N)NCCC[C@H](N)C(=O)O [L-NMMA]
enhancement in total luminescent counts compared to control group (ALDH1A1 activity): 5.9 fold | total luminescent counts (ALDH1A1 activity; 40 min): 9.9±2.7×10^4 | iNOS expression in tumors (iNOS): reduced | intracellular levels of NO ([4]; L-NMMA 1 mM): decreasing | bioluminescence higher compared to vehicle-treated cells [5]: 2.4 fold | ALDH1A1 expression in tumors (ALDH1A1 [6]): opposite trend

CCN(CC)/[N+]([O-])=N/O.CCNCC [DEA NONOate]
intracellular levels of NO ([4]; DEA NONOate 50 μM): increasing

NCCN(CCN)/[N+]([O-])=N/O [DETA NONOate]
bioluminescence decreased [7]: 1.3 fold
